What all share (assay type): functional
Test [1] deals with Acinetobacter calcoaceticus. In words: Tested in vitro for inhibitory activity against gram negative bacteria Acinetobacter calcoaceticus OSMPV 113 strain.
Test [2] relates to Enterobacter cloacae. Kind of test: Tested in vitro for inhibitory activity against gram negative bacteria Enterobacter cloacae OMNFI 174 strain.
In test [3] the test system is Escherichia coli. Kind of test: Tested in vitro for inhibitory activity against gram negative bacteria Escherichia coli ATCC 8739 cell lines at 5.8 ug/mL.
The test system of test [4] is Escherichia coli. Kind of test: Tested in vitro for inhibitory activity against gram negative bacteria Escherichia coli ISF 432 cell lines at 5.8 ug/mL.
The test system of test [5] is Shigella. In words: Tested in vitro for inhibitory activity against gram negative bacteria Shigella enteritidis.
Test [6] concerns Staphylococcus epidermidis. Kind of test: Tested in vitro for inhibitory activity against gram positive bacteria Staphylococcus epidermidis HCF berset C strain.
Test [7] relates to Staphylococcus aureus. Kind of test: Tested in vitro for inhibitory activity against gram positive bacteria Staphylococcus aureus ATCC 6538 strain.
The subject of test [8] is Staphylococcus aureus. Kind of test: Tested in vitro for inhibitory activity against gram positive bacteria Staphylococcus aureus MPR 5 strain.
The subject of test [9] is Enterococcus faecalis. In words: Tested in vitro for inhibitory activity against gram positive bacteria Streptococcus faecalis LEP Br strain.
For test [10], the system named is Staphylococcus epidermidis. Kind of test: Tested in vitro for inhibitory activity against gram positive bacteria Staphylococcus epidermidis CPHL A2 strain.
Test [11] has as its system Klebsiella pneumoniae. Kind of test: Tested in vitro for inhibitory activity against gram negative bacteria Klebsiella pneumoniae ATCC 10031 strain.
Test [12] deals with Providencia stuartii. Kind of test: Tested in vitro for inhibitory activity against gram negative bacteria Providencia stuartii CNUR 5 strain.
The test system of test [13] is Pseudomonas aeruginosa. Kind of test: Tested in vitro for inhibitory activity against gram negative bacteria Pseudomonas aeruginosa ATCC 9027 strain.
Test [14] has as its system Escherichia coli. In words: Tested in vitro for inhibitory activity against gram negative bacteria Escherichia coli ATCC 8739 cell lines.
In test [15] the test system is Escherichia coli. In words: Tested in vitro for inhibitory activity against gram negative bacteria Escherichia coli ISF 432 strain.
Test [16] concerns Escherichia coli. Kind of test: Tested in vitro for inhibitory activity against gram negative bacteria Escherichia coli ATCC 8739 cell lines at 10 ug/mL.
Test [17] deals with Escherichia coli. Kind of test: Tested in vitro for inhibitory activity against gram negative bacteria Escherichia coli ISF 432 cell lines at 10 ug/mL.
Test [18] has as its system Escherichia coli. In words: Tested in vitro for inhibitory activity against gram negative bacteria Escherichia coli ATCC 8739 strain at 25 ug/mL.
Test [19] has as its system Escherichia coli. In words: Tested in vitro for inhibitory activity against gram negative bacteria Escherichia coli ISF 432 strain at 25 ug/mL.
The subject of test [20] is Escherichia coli. Kind of test: Tested in vitro for inhibitory activity against gram negative bacteria Escherichia coli ATCC 8739 cell lines at 25 ug/mL.
Test [21] concerns Escherichia coli. In words: Tested in vitro for inhibitory activity against gram negative bacteria Escherichia coli ISF 432 cell lines at 25 ug/mL.
In test [22] the test system is Escherichia coli. In words: Tested in vitro for inhibitory activity against gram negative bacteria Escherichia coli ATCC 8739 strain.
In test [23] the test system is Providencia stuartii. In words: Tested in vitro for inhibitory activity against gram negative bacteria Providencia stuartii CNUR 5 cell lines.

In brackets after ≈: the same amount, converted by molar mass.

Among the data in ChEMBL document CHEMBL1128274, “6-Aminoquinolones: a new class of quinolone antibacterials?” (1995) are MIC values, retold here.

For the molecule `Nc1cc2c(=O)c(C(=O)O)cn(C3CC3)c2c(F)c1N1CCSCC1`, the MIC in test [1] is 1 µg/mL (≈ 2.75 µM); in test [2] it was 1 µg/mL (≈ 2.75 µM); in [3], 0.12 µg/mL (≈ 0.33 µM); in test [4], 0.06 µg/mL (≈ 0.165 µM); in test [5] it was 4 µg/mL (≈ 11 µM); in [6], 1 µg/mL (≈ 2.75 µM). Besides, the MIC worked out at 0.5 µg/mL (≈ 1.38 µM) in test [7]; 0.25 µg/mL (≈ 0.688 µM) in test [8]; 4 µg/mL (≈ 11 µM) in test [9]; 0.5 µg/mL (≈ 1.38 µM) in test [10]; 0.03 µg/mL (≈ 0.0826 µM) in [11]; 0.5 µg/mL (≈ 1.38 µM) in test [12]. The molecule also registered an MIC in [13] of 4 µg/mL (≈ 11 µM).

For the molecule `CN1CCN(c2c(N)c(N)c3c(=O)c(C(=O)O)cn(C4CC4)c3c2F)CC1`, the MIC in test [1] is 2 µg/mL (≈ 5.33 µM); in [2], 0.12 µg/mL (≈ 0.32 µM); in test [14] it was 0.03 µg/mL (≈ 0.0799 µM); in test [15] it was 0.03 µg/mL (≈ 0.0799 µM); in test [5], 0.25 µg/mL (≈ 0.666 µM); in test [6], 4 µg/mL (≈ 10.7 µM). Besides, the MIC was 2 µg/mL (≈ 5.33 µM) in [7]; 2 µg/mL (≈ 5.33 µM) in test [8]; 4 µg/mL (≈ 10.7 µM) in test [9]; 4 µg/mL (≈ 10.7 µM) in [10]; 0.03 µg/mL (≈ 0.0799 µM) in test [11]; 2 µg/mL (≈ 5.33 µM) in [12]. The MIC in test [13] was determined as 4 µg/mL (≈ 10.7 µM).

For `Nc1cc2c(=O)c(C(=O)O)cn(C3CC3)c2cc1N1CCSCC1`, the MIC in [1] is 1 µg/mL (≈ 2.89 µM); in test [2] it was 0.5 µg/mL (≈ 1.45 µM); in test [16], 0.03 µg/mL (≈ 0.0868 µM); in test [17] it was 0.03 µg/mL (≈ 0.0868 µM); in [5], 0.5 µg/mL (≈ 1.45 µM); in test [6], 2 µg/mL (≈ 5.79 µM). Also, the MIC in test [7] came out at 0.5 µg/mL (≈ 1.45 µM); in test [8], 0.5 µg/mL (≈ 1.45 µM); in test [9], 8 µg/mL (≈ 23.2 µM); in test [10], 1 µg/mL (≈ 2.89 µM); in [11], 0.03 µg/mL (≈ 0.0868 µM); in test [12], 1 µg/mL (≈ 2.89 µM). In [13], this molecule returned an MIC of 2 µg/mL (≈ 5.79 µM).

On to `CN1CCN(c2cc3c(cc2N)c(=O)c(C(=O)O)cn3C2CC2)CC1`, for which the MIC in test [1] is 4 µg/mL (≈ 11.7 µM); in test [2], 0.25 µg/mL (≈ 0.73 µM); in [18], 0.25 µg/mL (≈ 0.73 µM); in test [19] it was 0.03 µg/mL (≈ 0.0876 µM); in test [5], 0.25 µg/mL (≈ 0.73 µM); in [6] it was 4 µg/mL (≈ 11.7 µM). For the same molecule, the MIC in test [7] came to 2 µg/mL (≈ 5.84 µM); in test [8], 2 µg/mL (≈ 5.84 µM); in test [9], 32 µg/mL (≈ 93.5 µM); in test [10], 2 µg/mL (≈ 5.84 µM); in test [11], 0.03 µg/mL (≈ 0.0876 µM); in test [12] it was 8 µg/mL (≈ 23.4 µM). Moreover, the MIC in test [13] was found to be 4 µg/mL (≈ 11.7 µM).

For `CN1CCN(c2c(N)cc3c(=O)c(C(=O)O)cn(C4CC4)c3c2F)CC1`, the MIC is 8 µg/mL (≈ 22.2 µM) in test [1]; 0.25 µg/mL (≈ 0.694 µM) in [2]; 1 µg/mL (≈ 2.77 µM) in test [20]; 0.05 µg/mL (≈ 0.139 µM) in [21]; 0.25 µg/mL (≈ 0.694 µM) in test [5]; 8 µg/mL (≈ 22.2 µM) in test [6]. The MIC worked out at 4 µg/mL (≈ 11.1 µM) in test [7]; 4 µg/mL (≈ 11.1 µM) in test [8]; 64 µg/mL (≈ 178 µM) in test [9]; 4 µg/mL (≈ 11.1 µM) in [10]; 0.05 µg/mL (≈ 0.139 µM) in [11]; 4 µg/mL (≈ 11.1 µM) in test [12]. Also, the MIC in [13] amounted to 2 µg/mL (≈ 5.55 µM).

As for `CN1CCN(c2cc3c(cc2N)c(=O)c(C(=O)O)cn3C(C)(C)C)CC1`, the MIC in test [1] is 4 µg/mL (≈ 11.2 µM); in [2], 1 µg/mL (≈ 2.79 µM); in test [20], 0.06 µg/mL (≈ 0.167 µM); in test [21] it was 0.06 µg/mL (≈ 0.167 µM); in [5] it was 1 µg/mL (≈ 2.79 µM); in test [6], 4 µg/mL (≈ 11.2 µM). In addition, the MIC was 2 µg/mL (≈ 5.58 µM) in test [7]; 2 µg/mL (≈ 5.58 µM) in test [8]; 32 µg/mL (≈ 89.3 µM) in test [9]; 2 µg/mL (≈ 5.58 µM) in [10]; 0.06 µg/mL (≈ 0.167 µM) in test [11]; 4 µg/mL (≈ 11.2 µM) in [12]. The MIC in [13] came to 4 µg/mL (≈ 11.2 µM).

As for `Nc1cc2c(=O)c(C(=O)O)cn(C3CC3)c2cc1Cl`, the MIC in test [1] is 128 µg/mL (≈ 459 µM); in test [2], 16 µg/mL (≈ 57.4 µM); in test [22] it was 2 µg/mL (≈ 7.18 µM); in [15], 2 µg/mL (≈ 7.18 µM); in [23], 64 µg/mL (≈ 230 µM); in [5] it was 16 µg/mL (≈ 57.4 µM). Further, the MIC in test [6] came to 64 µg/mL (≈ 230 µM); in test [7], 128 µg/mL (≈ 459 µM); in [8] it was 128 µg/mL (≈ 459 µM); in [9], 128 µg/mL (≈ 459 µM); in test [10], 128 µg/mL (≈ 459 µM); in test [11], 2 µg/mL (≈ 7.18 µM). The molecule also returned an MIC in [13] of 128 µg/mL (≈ 459 µM).
